Assays:
Type in all cases: in vivo, C57BL/6J mice
[1] = system: hippocampal nerve cells (CA1 pyramidal cell layer); experiment: Evaluation of viability of hippocampal nerve cells; conditions: oral for 12 days, compared to Group 2, FIG. 4
Method: (§1) Experimental Example: 10-week-old male C57BL/6J mice (CLEA Japan, Inc. approximately 25 g of average body weight per mouse) were preliminarily acclimated for 1 week, and provided for experiments. L-citrulline and citicoline were obtained from KYOWA HAKKO BIO CO., LTD.
(§2) C57BL/6J mice were divided into a sham-operation group (Group 1) and a bilateral common carotid arteries occlusion group, which was performed under halothane anesthesia for 20 minutes. […] After evaluating learning memory functions, the hippocampus was removed and viability of hippocampal nerve cells was evaluated.
Twelve days after bilateral occlusion of the common carotid arteries, mice were anesthetized with pentobarbital sodium, and perfused with ice-cold phosphate buffer (PBS, pH 7.4) until the blood in the body was completely removed. […] Surviving and non-surviving nerve cells in the CA1 pyramidal cell layer of the hippocampus were counted at 1.4 to 1.8 mm posterior to bregma, and cells with PI-positive nuclei and typical morphological characteristics were defined as surviving nerve cells. The cell viability was calculated from a ratio to the average number of surviving nerve cells in Group 1.

[2] = system: bilateral common carotid arteries occlusion mice; experiment: Novel object recognition test; conditions: oral, after 7 days of administration, novel vs familiar object, FIG. 3
Method: as §1
(§3) C57BL/6J mice were divided into a sham-operation group (Group 1) and a bilateral common carotid arteries occlusion group, which was performed under halothane anesthesia for 20 minutes. One day after reperfusion, the bilateral common carotid arteries occlusion group was further divided into a distilled water-treated group (Group 2), a low-dose L-citrulline-treated group (40 mg/kg: Group 3), a low-dose citicoline-treated group (40 mg/kg: Group 4), a high-dose L-citrulline-treated group (100 mg/kg: Group 5), a high-dose citicoline-treated group (100 mg/kg: Group 6), and a combination treatment group of a low dose of L-citrulline and a low dose of citicoline (each 40 mg/kg: Group 7). […] After evaluating learning memory functions, the hippocampus was removed and viability of hippocampal nerve cells was evaluated.
The novel object recognition test was performed after mice were individually acclimated to the open field apparatus (35×25×35 cm) for 2 days. […] A ratio of the frequency of exploring the familiar or novel object over the total exploration frequency was calculated, and used as an index for visual recognition memory.

[3] = system: bilateral common carotid arteries occlusion mice; experiment: Y-maze test (spontaneous alternation behavior); conditions: oral, after 7 days of administration, FIG. 1
Method: as §1
as §3, with “7). Each sample was orally administered for 12 days.” for “7).”
In the Y-maze test, a Y-maze apparatus with three arms (50×16×32 cm) was used. […] The sequence of arm entries was recorded. The number of entries into each arm was counted during the measurement time, which was defined as the total number of entries. […]

[4] = system: bilateral common carotid arteries occlusion mice; experiment: Passive avoidance test; conditions: oral, after 7 days of administration, compared to Group 2, FIG. 2
Method: as §1, §2
The passive avoidance test was performed using a box consisting of dark (25×25×25 cm) and light compartments (14×10×25 cm) and being equipped with an electrical stimulation apparatus at the bottom of the dark compartment. […] Twenty four hours after training, the mouse was placed again in the light compartment, and the latency time spent in the light compartment was recorded with a maximum latency of 300 seconds.

NC(=O)NCCC[C@H](N)C(=O)O [L-citrulline]
viability of hippocampal nerve cells ([1]; high dose 100 mg/kg): nerve cell-protecting effect
viability of hippocampal nerve cells ([1]; low dose 40 mg/kg): viability of hippocampal nerve cells cannot be improved
frequency of exploring the novel object ([2]; high dose 100 mg/kg): remarkably improved effect of memory behavior
frequency of exploring the novel object ([2]; low dose 40 mg/kg): frequency of exploring the novel object cannot be increased
spontaneous alternation behavior rate (Alternation) ([3]; high dose 100 mg/kg, compared to Group 2): improved effect of memory behavior
spontaneous alternation behavior rate (Alternation) ([3]; low dose 40 mg/kg, compared to distilled water-treated occlusion group (Group 2)): Alternation cannot be improved
time spent in the light compartment (Latency time) ([4]; high dose 100 mg/kg): improved effect of memory behavior
time spent in the light compartment (Latency time) ([4]; low dose 40 mg/kg): latency time cannot be improved
